# Reference: ChEMBL document CHEMBL1201862, “PubChem BioAssay data set” (2004)
# The source made the active and inactive calls.
# How the values were obtained:
# [1] = biological target: T1, DNA repair and recombination protein RAD54-like (Homo sapiens, UniProt Q92698); test: RAD54 Holliday junction migration blockers – biochemical, fluorescence, cherry-picked samples, dose series, confirmation (AID 651657); type: functional
# T1 sequence (Q92698 whole entry): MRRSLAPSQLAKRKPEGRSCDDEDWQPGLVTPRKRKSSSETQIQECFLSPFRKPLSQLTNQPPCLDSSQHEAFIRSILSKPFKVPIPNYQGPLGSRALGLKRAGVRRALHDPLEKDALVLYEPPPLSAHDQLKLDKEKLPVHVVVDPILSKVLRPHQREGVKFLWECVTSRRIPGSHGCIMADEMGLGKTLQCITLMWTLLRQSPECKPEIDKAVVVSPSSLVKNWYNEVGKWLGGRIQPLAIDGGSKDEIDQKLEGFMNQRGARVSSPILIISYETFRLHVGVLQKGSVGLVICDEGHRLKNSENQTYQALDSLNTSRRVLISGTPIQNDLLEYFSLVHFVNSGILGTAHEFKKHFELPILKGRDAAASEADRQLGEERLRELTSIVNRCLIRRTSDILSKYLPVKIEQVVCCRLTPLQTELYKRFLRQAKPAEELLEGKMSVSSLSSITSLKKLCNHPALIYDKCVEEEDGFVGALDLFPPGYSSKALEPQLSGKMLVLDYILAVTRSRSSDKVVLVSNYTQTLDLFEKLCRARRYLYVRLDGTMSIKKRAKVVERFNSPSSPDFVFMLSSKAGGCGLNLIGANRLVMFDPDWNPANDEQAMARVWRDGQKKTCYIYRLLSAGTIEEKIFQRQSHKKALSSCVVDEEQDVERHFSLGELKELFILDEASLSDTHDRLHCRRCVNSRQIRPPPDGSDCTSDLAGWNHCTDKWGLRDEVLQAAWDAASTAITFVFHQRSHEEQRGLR
# [2] = biological target: NAD-dependent protein deacylase sirtuin-5, mitochondrial (Homo sapiens, UniProt Q9NXA8); test: sirtuin-5 deacylation blockers, concentration series – biochemical, fluorescence imaging, cherry-pick, set 5, dose response (AID 720591);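 further: desuccinylation of succinyl peptide AMC substrate read as fluorescence after trypsin release; potency of inhibitors that lower fluorescence and may act on trypsin instead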
# [3] = biological target: T2, Short transient receptor potential channel 4 (Mus musculus, UniProt Q9QUQ5); test: block of DAMGO-driven TRPC4 calcium entry – cell-based, HEK293 TRPC4/mu-opioid, Fluo-4 calcium, dose response (AID 434942); type: functional;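 further: potency of inhibitors blocking the TRPC4 calcium response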
# T2 sequence (Q9QUQ5 whole entry): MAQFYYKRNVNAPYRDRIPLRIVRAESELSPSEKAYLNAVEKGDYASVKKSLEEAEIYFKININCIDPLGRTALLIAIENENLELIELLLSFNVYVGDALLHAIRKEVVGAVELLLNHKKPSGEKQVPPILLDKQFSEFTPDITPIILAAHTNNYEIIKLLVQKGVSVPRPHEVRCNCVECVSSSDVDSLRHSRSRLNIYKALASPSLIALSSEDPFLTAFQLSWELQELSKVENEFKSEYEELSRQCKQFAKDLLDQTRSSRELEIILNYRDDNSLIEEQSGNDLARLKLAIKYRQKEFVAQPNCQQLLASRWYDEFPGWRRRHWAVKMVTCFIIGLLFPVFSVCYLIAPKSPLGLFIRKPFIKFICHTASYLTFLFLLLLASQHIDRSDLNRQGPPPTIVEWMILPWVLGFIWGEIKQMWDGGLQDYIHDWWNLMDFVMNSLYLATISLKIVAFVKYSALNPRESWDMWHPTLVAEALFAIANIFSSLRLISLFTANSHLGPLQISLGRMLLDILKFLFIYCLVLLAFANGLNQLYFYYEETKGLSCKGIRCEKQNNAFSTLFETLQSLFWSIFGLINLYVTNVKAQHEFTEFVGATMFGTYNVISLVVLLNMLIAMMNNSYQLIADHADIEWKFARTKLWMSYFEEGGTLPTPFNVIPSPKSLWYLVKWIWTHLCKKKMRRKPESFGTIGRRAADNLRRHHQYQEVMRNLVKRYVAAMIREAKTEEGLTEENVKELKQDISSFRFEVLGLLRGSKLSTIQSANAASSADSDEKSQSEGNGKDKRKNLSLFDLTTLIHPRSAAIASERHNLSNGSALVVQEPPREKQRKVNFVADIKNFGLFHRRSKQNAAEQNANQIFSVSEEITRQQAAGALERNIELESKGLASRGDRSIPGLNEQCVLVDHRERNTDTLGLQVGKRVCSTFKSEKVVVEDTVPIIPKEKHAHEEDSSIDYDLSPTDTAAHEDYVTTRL
# Caspase-3 = biological target: T3, Caspase-3 (Homo sapiens, UniProt P42574); type: functional;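 further: Dose-response selectivity test against caspase-3 for candidate inhibitors of sentrin-specific proteases (SENPs)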
# T3 sequence (P42574 whole entry): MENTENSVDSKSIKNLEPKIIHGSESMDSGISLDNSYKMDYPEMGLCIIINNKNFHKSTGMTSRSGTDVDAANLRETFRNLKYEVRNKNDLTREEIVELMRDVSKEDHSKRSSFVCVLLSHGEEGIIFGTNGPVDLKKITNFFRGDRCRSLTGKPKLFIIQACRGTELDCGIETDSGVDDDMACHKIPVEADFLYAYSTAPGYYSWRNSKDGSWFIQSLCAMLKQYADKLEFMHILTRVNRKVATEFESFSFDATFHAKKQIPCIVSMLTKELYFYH
# [4] = biological target: T4, Oxysterols receptor LXR-beta (Homo sapiens, UniProt P55055); type: functional, cell-based
# T4 sequence (P55055 whole entry): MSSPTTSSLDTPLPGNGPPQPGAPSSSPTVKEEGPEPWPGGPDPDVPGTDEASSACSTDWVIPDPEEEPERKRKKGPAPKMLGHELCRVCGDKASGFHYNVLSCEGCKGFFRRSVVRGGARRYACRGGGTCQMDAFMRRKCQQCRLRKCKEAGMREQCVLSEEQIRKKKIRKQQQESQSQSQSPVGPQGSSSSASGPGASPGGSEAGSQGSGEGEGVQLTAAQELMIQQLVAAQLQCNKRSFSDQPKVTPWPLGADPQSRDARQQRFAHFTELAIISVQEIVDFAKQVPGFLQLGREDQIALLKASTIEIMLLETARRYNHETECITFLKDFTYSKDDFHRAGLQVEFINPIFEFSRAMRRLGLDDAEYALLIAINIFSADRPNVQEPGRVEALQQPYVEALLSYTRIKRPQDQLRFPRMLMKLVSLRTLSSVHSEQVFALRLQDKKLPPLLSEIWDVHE
# [5] = biological target: T5, Sentrin-specific protease 8 (Homo sapiens, UniProt Q96LD8); type: functional;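 further: luminescence read-out of SENP8 inhibition, dose-response confirmation following an ultra-high-throughput screen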
# T5 sequence (Q96LD8 whole entry): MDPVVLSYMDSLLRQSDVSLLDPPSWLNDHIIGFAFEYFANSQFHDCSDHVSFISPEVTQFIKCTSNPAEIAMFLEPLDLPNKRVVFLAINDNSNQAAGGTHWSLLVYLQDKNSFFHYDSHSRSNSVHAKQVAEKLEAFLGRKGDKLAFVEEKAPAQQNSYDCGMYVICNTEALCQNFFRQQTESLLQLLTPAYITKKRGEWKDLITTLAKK
# [6] = biological target: T6, Sentrin-specific protease 6 (Homo sapiens, UniProt Q9GZR1); type: functional;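 further: Luminescence-based dose-response confirmatory assay of SENP6 inhibition, following up an ultra-high-throughput screen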
# T6 sequence (Q9GZR1 whole entry): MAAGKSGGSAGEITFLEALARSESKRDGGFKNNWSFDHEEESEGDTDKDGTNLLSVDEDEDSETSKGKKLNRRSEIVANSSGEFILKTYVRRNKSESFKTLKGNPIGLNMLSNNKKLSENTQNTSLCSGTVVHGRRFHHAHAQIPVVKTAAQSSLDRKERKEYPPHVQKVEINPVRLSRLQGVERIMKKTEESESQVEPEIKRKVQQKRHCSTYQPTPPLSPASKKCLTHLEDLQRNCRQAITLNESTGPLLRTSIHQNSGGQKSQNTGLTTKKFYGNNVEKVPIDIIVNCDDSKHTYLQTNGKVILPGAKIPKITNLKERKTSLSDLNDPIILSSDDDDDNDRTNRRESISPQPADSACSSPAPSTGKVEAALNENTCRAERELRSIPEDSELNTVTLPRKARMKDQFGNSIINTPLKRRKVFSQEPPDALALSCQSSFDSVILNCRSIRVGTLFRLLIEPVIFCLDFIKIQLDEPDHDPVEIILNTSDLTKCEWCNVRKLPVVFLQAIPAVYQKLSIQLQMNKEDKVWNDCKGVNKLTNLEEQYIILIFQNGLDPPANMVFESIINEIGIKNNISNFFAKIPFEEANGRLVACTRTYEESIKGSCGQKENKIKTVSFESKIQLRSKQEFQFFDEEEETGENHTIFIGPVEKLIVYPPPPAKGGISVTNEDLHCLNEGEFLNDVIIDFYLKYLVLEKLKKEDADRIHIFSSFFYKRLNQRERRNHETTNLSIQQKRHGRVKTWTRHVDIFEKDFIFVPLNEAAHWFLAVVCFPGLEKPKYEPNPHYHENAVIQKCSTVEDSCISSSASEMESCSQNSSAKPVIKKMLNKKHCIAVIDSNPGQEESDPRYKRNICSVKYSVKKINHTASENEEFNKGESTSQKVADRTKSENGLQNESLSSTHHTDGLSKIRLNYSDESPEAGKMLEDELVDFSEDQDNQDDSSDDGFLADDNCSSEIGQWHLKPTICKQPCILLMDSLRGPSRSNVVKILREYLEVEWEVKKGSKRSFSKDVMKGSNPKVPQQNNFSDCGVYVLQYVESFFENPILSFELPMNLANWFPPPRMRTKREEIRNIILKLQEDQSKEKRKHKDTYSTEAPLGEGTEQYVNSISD
# [7] = biological target: T7, Sentrin-specific protease 7 (Homo sapiens, UniProt Q9BQF6); type: functional;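 further: Luminescence-based dose-response confirmation of ultra-high-throughput screening hits, measuring inhibition of SENP7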
# T7 sequence (Q9BQF6 whole entry): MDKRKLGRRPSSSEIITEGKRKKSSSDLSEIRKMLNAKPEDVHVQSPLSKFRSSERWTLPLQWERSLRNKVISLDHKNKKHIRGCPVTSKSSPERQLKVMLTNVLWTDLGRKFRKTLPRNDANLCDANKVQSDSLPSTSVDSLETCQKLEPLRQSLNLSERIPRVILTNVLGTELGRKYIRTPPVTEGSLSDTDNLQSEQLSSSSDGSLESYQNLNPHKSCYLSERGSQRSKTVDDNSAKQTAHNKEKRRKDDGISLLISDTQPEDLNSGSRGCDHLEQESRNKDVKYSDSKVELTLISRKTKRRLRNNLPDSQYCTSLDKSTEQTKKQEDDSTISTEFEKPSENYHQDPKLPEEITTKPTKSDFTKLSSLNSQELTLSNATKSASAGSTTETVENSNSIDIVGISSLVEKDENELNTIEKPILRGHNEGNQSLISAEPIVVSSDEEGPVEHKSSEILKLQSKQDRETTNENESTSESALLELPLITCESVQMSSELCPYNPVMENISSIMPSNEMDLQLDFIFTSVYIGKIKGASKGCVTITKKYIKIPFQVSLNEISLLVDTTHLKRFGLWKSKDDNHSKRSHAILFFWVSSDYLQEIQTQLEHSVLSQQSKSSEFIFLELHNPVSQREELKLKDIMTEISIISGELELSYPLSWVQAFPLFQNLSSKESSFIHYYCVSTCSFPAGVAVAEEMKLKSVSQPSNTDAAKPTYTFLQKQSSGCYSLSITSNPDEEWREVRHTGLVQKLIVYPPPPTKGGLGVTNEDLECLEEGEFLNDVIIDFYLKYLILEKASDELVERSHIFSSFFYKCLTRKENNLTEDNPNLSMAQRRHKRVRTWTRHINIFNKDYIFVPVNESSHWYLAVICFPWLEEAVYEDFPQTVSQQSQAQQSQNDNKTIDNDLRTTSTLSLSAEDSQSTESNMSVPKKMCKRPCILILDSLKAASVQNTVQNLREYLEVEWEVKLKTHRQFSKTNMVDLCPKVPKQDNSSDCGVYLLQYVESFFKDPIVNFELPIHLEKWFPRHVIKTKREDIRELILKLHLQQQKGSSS
# [8] = biological target: T4, Oxysterols receptor LXR-beta; type: functional, cell-based; remark: listed apart in the source
# [9] = OVCAR-3 cell viability loss – plate reader, dry powder samples, PAX8 inhibitor project, dose response (AID 743044); type: functional, cell-based
# Paired box protein Pax-8 = Paired box protein Pax-8 (Homo sapiens, UniProt Q06710); test: PAX8 transcriptional activity inhibition in RMG-I – RMG-I cells, luciferase, cherry-pick, dose response (AID 687027); type: functional, cell-based;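 further: luciferase reporter driven by Pax8 target thyroperoxidase promoter measured by SteadyGlo luminescence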
# [10] = cytotoxicity in MITF-independent A375 cells – cell-based, CellTiter-Glo luminescence, dry powder, set 4, counter-screen for MITF inhibitor project, dose response (AID 624364); type: functional; settings: A-375;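 further: A375 melanoma cells are MITF independent so this is a counter screen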
# [11] = viability loss in MITF-independent A375 cells – cell-based, CellTiter-Glo luminescence, dry powder, set 2, counter-screen for MITF inhibitor project, dose response (AID 624489); type: functional; settings: A-375;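 further: actives are compounds lowering A375 viability meaning general cytotoxicity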
# [12] = reduced cellular PGC1a acetyl-lysine signal – cell-based, cherry-picked samples, dose response (AID 720514); type: functional;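 further: potency may reflect raised or lowered acetylation signal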
# [13] = growth inhibition of PfATP4-mutant resistant parasites – NITD609-resistant line, SYBR Green, dry powder, dose response (AID 1159571); type: functional, cell-based;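 further: parasites synchronized at ring stage by sorbitol before testing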
# [14] = Dd2 malaria parasite growth inhibition potency – SYBR Green, dry powder samples, dose response (AID 1159566); type: functional, cell-based;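 further: potency for growth inhibition with lower SYBR green DNA signal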
# [15] = P. falciparum Dd2 growth inhibitors, dose response, SYBR Green, cherry-picked samples (AID 1159567); type: functional, cell-based
# [16] = growth inhibition of yeast DHODH-expressing 3D7 parasites – SYBR Green, dry powder samples, dose response (AID 1159570); type: functional, cell-based;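 further: parasite growth measured after 72 hours of compound exposure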
# [17] = toxicity to human HepG2 hepatoma cells – cell-based, plate reader, dry powder samples, cytotoxicity control, dose response (AID 1159569); type: functional;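 further: inhibitor potency with signal falling toward the positive control level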
# NAD-dependent protein deacylase sirtuin-5, mitochondrial, sequence (Q9NXA8 whole entry): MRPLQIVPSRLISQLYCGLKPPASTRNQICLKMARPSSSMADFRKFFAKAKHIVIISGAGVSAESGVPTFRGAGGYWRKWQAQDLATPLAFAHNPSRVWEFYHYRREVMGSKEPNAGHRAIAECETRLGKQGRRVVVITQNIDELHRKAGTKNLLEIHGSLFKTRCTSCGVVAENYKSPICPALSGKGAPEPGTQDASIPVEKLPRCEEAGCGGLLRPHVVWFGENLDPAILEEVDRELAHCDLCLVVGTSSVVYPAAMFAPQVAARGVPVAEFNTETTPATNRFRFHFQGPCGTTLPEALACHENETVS
# Paired box protein Pax-8, sequence (Q06710 whole entry): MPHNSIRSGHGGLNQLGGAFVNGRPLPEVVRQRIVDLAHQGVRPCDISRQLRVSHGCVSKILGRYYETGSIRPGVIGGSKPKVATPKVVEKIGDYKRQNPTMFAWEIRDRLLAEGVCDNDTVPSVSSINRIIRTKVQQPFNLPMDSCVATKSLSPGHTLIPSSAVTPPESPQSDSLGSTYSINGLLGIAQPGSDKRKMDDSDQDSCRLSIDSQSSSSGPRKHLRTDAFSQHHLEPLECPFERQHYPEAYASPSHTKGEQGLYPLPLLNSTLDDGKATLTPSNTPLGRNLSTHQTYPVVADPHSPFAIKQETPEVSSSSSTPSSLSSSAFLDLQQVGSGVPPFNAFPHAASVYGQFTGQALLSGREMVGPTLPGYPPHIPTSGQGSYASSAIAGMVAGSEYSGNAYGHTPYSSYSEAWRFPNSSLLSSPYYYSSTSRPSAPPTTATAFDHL
compound,measurement,setting,value
Cc1ccc(Nc2cc(C)nc3c(C)cccc23)cc1,AC50,[1],34.4 µM (active)
same,AC50,[2],> 30 µM (inactive)
same,EC50,[3],0.531 µM (active)
CCOC(=O)Cc1csc(NC(=O)Cn2cnc3c2c(=O)n(C)c(=O)n3C)n1,AC50,[2],> 30 µM (inactive)
Cc1ccc(-c2n[nH]c(Nc3ccccc3)n2)cc1,EC50,cells,> 67.5 µM (inactive)
Cc1ccc(-c2nnc(Nc3ccccc3)[nH]2)cc1,IC50,Caspase-3,40.4 µM (active)
same,EC50,[4],> 67.5 µM (inactive)
same,IC50,[5],> 100 µM (inactive)
same,IC50,[6],> 100 µM (inactive)
same,IC50,[7],7.36 µM (active)
same,EC50,[8],> 67.5 µM (inactive)
C[C@H]1CN([C@@H](C)CO)C(=O)Cc2cc(NC(=O)Nc3ccc(F)cc3)ccc2O[C@H]1CN(C)Cc1ccc(Cl)c(Cl)c1,AC50,[9],32.5 µM (active)
same,AC50,Paired box protein Pax-8,7.04 µM (active)
CN1CCN(C2=C(Nc3ccccc3)C(=O)c3ccccc3C2=O)CC1,AC50,[10],61.7 µM (active)
same,AC50,[11],24 µM (active)
C[C@@H]1CN([C@H](C)CO)C(=O)c2cccc(NC(=O)c3nc4ccccc4s3)c2O[C@@H]1CN(C)CC1CCCCC1,AC50,[12],27.1 µM (active)
N#C[C@@H]1[C@@H](c2ccc(C#Cc3ccc(F)cc3)cc2)[C@H](CO)N1C(=O)C1CCCC1,AC50,[13],1.99 µM (active)
same,AC50,[14],1.52 µM (active)
same,AC50,[15],2.53 µM (active)
same,AC50,[16],1.82 µM (active)
same,AC50,[17],25.5 µM (active)
